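A five-concentration, 48-hour dose response in 96-well plates underlies each endpoint, interpolated linearly between surrounding concentrations. GI50: concentration for 50% inhibition of growth.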 Activity calls are given as the source filed them. Cut-off read from the data, not from the text of the source: active = GI50 up to about 1.1 µM and inactive = higher.
Legend:
Assay in all cases: growth of human tumour cells (NCI), 48 h
RXF 393 = tested on: RXF 393
HT-29 = tested on: HT-29
CAKI-1 = tested on: CAKI-1
KM12 = tested on: KM12
DU-145 = tested on: DU-145
U-251 = tested on: U-251
OVCAR-5 = tested on: OVCAR-5
SK-OV-3 = tested on: SK-OV-3
HCC 2998 = tested on: HCC 2998
OVCAR-4 = tested on: OVCAR-4
T47D = tested on: T47D
TK-10 = tested on: TK-10
CCRF-CEM = tested on: CCRF-CEM
HCT-116 = tested on: HCT-116
LOX IMVI = tested on: LOX IMVI
MOLT-4 = tested on: MOLT-4
A498 = tested on: A498
COLO 205 = tested on: COLO 205
SR = tested on: SR
OVCAR-8 = tested on: OVCAR-8
UACC-62 = tested on: UACC-62
UACC-257 = tested on: UACC-257
PC-3 = tested on: PC-3
IGROV-1 = tested on: IGROV-1
SK-MEL-5 = tested on: SK-MEL-5
NCI/ADR-RES = tested on: NCI/ADR-RES
NCI-H23 = tested on: NCI-H23
SF-295 = tested on: SF-295
RPMI-8226 = tested on: RPMI-8226
K562 = tested on: K562
OVCAR-3 = tested on: OVCAR-3
MDA-MB-231 = tested on: MDA-MB-231
HOP-92 = tested on: HOP-92
SW-620 = tested on: SW-620
ACHN = tested on: ACHN
786-0 = tested on: 786-0
UO-31 = tested on: UO-31
SNB-19 = tested on: SNB-19
NCI-H460 = tested on: NCI-H460
M14 = tested on: M14
SF-268 = tested on: SF-268
SNB-75 = tested on: SNB-75
NCI-H522 = tested on: NCI-H522
HL-60 = tested on: HL-60
SF-539 = tested on: SF-539
A549 = tested on: A549
EKVX = tested on: EKVX
SK-MEL-2 = tested on: SK-MEL-2
HOP-62 = tested on: HOP-62
SK-MEL-28 = tested on: SK-MEL-28
HCT-15 = tested on: HCT-15

SMILES	GI50 (RXF 393)	GI50 (HT-29)	GI50 (KM12)	GI50 (DU-145)	GI50 (OVCAR-5)	GI50 (HCC 2998)	GI50 (T47D)	GI50 (TK-10)	GI50 (HCT-116)	GI50 (COLO 205)	GI50 (SR)	GI50 (OVCAR-8)	GI50 (UACC-62)	GI50 (UACC-257)	GI50 (PC-3)	GI50 (IGROV-1)	GI50 (NCI-H23)	GI50 (K562)	GI50 (OVCAR-3)	GI50 (HOP-92)	further results
C[C@@H](C(=O)O)c1ccc(-c2ccccc2)c(F)c1 [TARENFLURBIL]	> 100 µM (inactive)	> 100 µM (inactive)	> 100 µM (inactive)	> 100 µM (inactive)	> 100 µM (inactive)	> 100 µM (inactive)	> 100 µM (inactive)	> 100 µM (inactive)	> 100 µM (inactive)	> 100 µM (inactive)	> 100 µM (inactive)	> 100 µM (inactive)	> 100 µM (inactive)	> 100 µM (inactive)	> 100 µM (inactive)	> 100 µM (inactive)	> 100 µM (inactive)	> 100 µM (inactive)	> 100 µM (inactive)	> 100 µM (inactive)	GI50 (CAKI-1): > 100 µM (inactive); GI50 (U-251): > 100 µM (inactive); GI50 (SK-OV-3): > 100 µM (inactive); GI50 (OVCAR-4): > 100 µM (inactive); GI50 (CCRF-CEM): > 100 µM (inactive); GI50 (LOX IMVI): > 100 µM (inactive); GI50 (MOLT-4): > 100 µM (inactive); GI50 (A498): > 100 µM (inactive); GI50 (SK-MEL-5): > 100 µM (inactive); GI50 (NCI/ADR-RES): > 100 µM (inactive); GI50 (SF-295): > 100 µM (inactive); GI50 (RPMI-8226): > 100 µM (inactive); GI50 (MDA-MB-231): > 100 µM (inactive); GI50 (SW-620): > 100 µM (inactive); GI50 (ACHN): > 100 µM (inactive); GI50 (786-0): > 100 µM (inactive); GI50 (UO-31): > 71.9 µM (inactive); GI50 (SNB-19): > 73.6 µM (inactive); GI50 (NCI-H460): > 100 µM (inactive); GI50 (M14): > 100 µM (inactive)
COc1cc([C@@H]2c3cc4c(cc3[C@@H](Nc3ccc(NC(=O)c5cc([N+](=O)[O-])cn5C)cc3)[C@H]3COC(=O)[C@H]23)OCO4)cc(OC)c1O	0.352 µM (active)	0.195 µM (active)	0.216 µM (active)	< 0.013 µM (active)	0.468 µM (active)	0.223 µM (active)	0.0134 µM (active)	0.479 µM (active)	0.138 µM (active)	0.219 µM (active)	< 0.01 µM (active)	0.11 µM (active)	0.0612 µM (active)	0.658 µM (active)	0.143 µM (active)	0.265 µM (active)	0.0401 µM (active)	0.132 µM (active)	0.449 µM (active)	0.0796 µM (active)	GI50 (SF-268): 0.118 µM (active); GI50 (SNB-75): 0.0614 µM (active); GI50 (NCI-H522): 0.291 µM (active); GI50 (HL-60): < 0.0213 µM (active); GI50 (SF-539): 0.0617 µM (active); GI50 (A549): 0.0195 µM (active); GI50 (EKVX): 0.658 µM (active); GI50 (SK-MEL-2): 0.938 µM (active); GI50 (HOP-62): 0.0198 µM (active); GI50 (SK-MEL-28): 0.621 µM (active); GI50 (SW-620): 0.162 µM (active); GI50 (ACHN): < 0.0108 µM (active); GI50 (786-0): 0.0627 µM (active); GI50 (UO-31): 0.231 µM (active); GI50 (SNB-19): 0.054 µM (active); GI50 (HCT-15): 0.307 µM; GI50 (M14): 0.0771 µM (active)
